Drawing on the supplement of paper PMC10307832, this text covers relative viability for six cell lines.

Holding throughout (assay): relative viability (nuclei count vs DMSO), 5 days (fraction); higher = more cells survive
Compound in assay [1]: COc1cc(Nc2ncc(F)c(Nc3ccc4c(n3)NC(=O)C(C)(C)O4)n2)cc(OC)c1OC [R406]
An outline of the steps: (§1)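 Viability was read as treated-well nuclei divided by vehicle-well nuclei, using the median across plates. Lung cancer cell lines in 1536-well plates were kept overnight at 37 °C, pinned with five √10-spaced library-drug doses, and after 5 days were Hoechst-stained, imaged at 4× and counted in MetaXpress. Plates passed only with control CV below 25% and at least one doubling.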

Compound in assay [2]: O=C(/C=C/c1cccnc1)NCCCCC1CCN(C(=O)c2ccccc2)CC1 [Daporinad]
Summed up: as §1

Compound in assay [3]: COc1cc(Nc2ncc(F)c(Nc3ccc4c(n3)NC(=O)C(C)(C)O4)n2)cc(OC)c1OC [R406] + Cc1nc(NC(=O)N2CCC[C@H]2C(N)=O)sc1-c1ccnc(C(C)(C)C(F)(F)F)c1 [Alpelisib] (partner 2 µM)
An outline of the steps: (§2)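 Values are medians from duplicate plates. Each reflects relative viability, defined as the nuclei count of treated wells over that of vehicle wells. Lung cancer cell lines in 1536-well plates were pin-tool dosed one day after seeding with one drug alone or with a fixed anchor-drug dose plus five library-drug doses (not always all listed) in √10 steps, then fixed, stained and imaged at 4× after 5 days.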

Compound in assay [4]: O=C(/C=C/c1cccnc1)NCCCCC1CCN(C(=O)c2ccccc2)CC1 [Daporinad] + Nc1nc2[nH]cc(CCc3ccc(C(=O)N[C@@H](CCC(=O)O)C(=O)O)cc3)c2c(=O)[nH]1 [Pemetrexed] (partner 0.2 µM)
Summed up: as §2

Consider NCI-H322M, for which the relative viability in assay [1] (0.08 µM) was found to be 0.889; in assay [1] (0.253 µM) it was 0.922; in assay [1] (0.8 µM), 0.939; in assay [1] (2.53 µM), 0.542; in assay [1] (8 µM), 0.405; in assay [2] (0.0005 µM) it was 0.906. Further, the relative viability was determined as 1.05 in assay [2] (0.001581 µM); 0.936 in assay [2] (0.005 µM); 0.751 in assay [2] (0.01581 µM); 0.811 in assay [3] (first compound 0.08 µM); 0.807 in assay [3] (first compound 0.253 µM); 0.774 in assay [3] (first compound 0.8 µM). Also, the relative viability was 0.375 in assay [3] (first compound 2.53 µM); 0.457 in assay [3] (first compound 8 µM); 0.638 in assay [4] (first compound 0.0005 µM); 0.634 in assay [4] (first compound 0.001581 µM); 0.635 in assay [4] (first compound 0.005 µM); 0.46 in assay [4] (first compound 0.01581 µM).
Consider NCI-H596, for which the relative viability in assay [1] (0.08 µM) came to 0.959; in assay [1] (0.253 µM) it was 1.22; in assay [1] (0.8 µM), 1.04; in assay [1] (2.53 µM), 0.663; in assay [1] (8 µM), 0.397; in assay [2] (0.0005 µM), 0.911. Also, the relative viability in assay [2] (0.001581 µM) was determined as 1.02; in assay [2] (0.005 µM), 0.991; in assay [2] (0.01581 µM) it was 0.638; in assay [3] (first compound 0.08 µM), 0.486; in assay [3] (first compound 0.253 µM), 0.53; in assay [3] (first compound 0.8 µM) it was 0.621. In addition, the relative viability amounted to 0.387 in assay [3] (first compound 2.53 µM); 0.183 in assay [3] (first compound 8 µM); 0.432 in assay [4] (first compound 0.0005 µM); 0.457 in assay [4] (first compound 0.001581 µM); 0.525 in assay [4] (first compound 0.005 µM); 0.36 in assay [4] (first compound 0.01581 µM).
In the case of NCI-H1666, the relative viability was 1 in assay [1] (0.08 µM); 1.02 in assay [1] (0.253 µM); 1.05 in assay [1] (0.8 µM); 1.03 in assay [1] (2.53 µM); 0.876 in assay [1] (8 µM); 0.891 in assay [2] (0.0005 µM). The relative viability in assay [2] (0.001581 µM) turned out to be 1.17; in assay [2] (0.005 µM) it was 1.05; in assay [2] (0.01581 µM), 1; in assay [3] (first compound 0.08 µM), 1.11; in assay [3] (first compound 0.253 µM) it was 0.953; in assay [3] (first compound 0.8 µM), 1.02. Further, the relative viability came out at 0.786 in assay [3] (first compound 2.53 µM); 0.385 in assay [3] (first compound 8 µM); 0.902 in assay [4] (first compound 0.0005 µM); 0.839 in assay [4] (first compound 0.001581 µM); 0.862 in assay [4] (first compound 0.005 µM); 0.806 in assay [4] (first compound 0.01581 µM).
On to NCI-H1993, for which the relative viability in assay [1] (0.08 µM) amounted to 1.01; in assay [1] (0.253 µM), 1.09; in assay [1] (0.8 µM) it was 0.921; in assay [1] (2.53 µM), 0.658; in assay [1] (8 µM), 0.599; in assay [2] (0.0005 µM), 0.881. Also, the relative viability in assay [2] (0.001581 µM) worked out at 0.99; in assay [2] (0.005 µM), 1.05; in assay [2] (0.01581 µM), 1.15; in assay [3] (first compound 0.08 µM), 0.692; in assay [3] (first compound 0.253 µM), 0.741; in assay [3] (first compound 0.8 µM), 0.772. Besides, the relative viability turned out to be 0.653 in assay [3] (first compound 2.53 µM); 0.599 in assay [3] (first compound 8 µM); 0.54 in assay [4] (first compound 0.0005 µM); 0.561 in assay [4] (first compound 0.001581 µM); 0.644 in assay [4] (first compound 0.005 µM); 0.567 in assay [4] (first compound 0.01581 µM).
Take NCI-H1975: the relative viability in assay [1] (0.08 µM) worked out at 0.848; in assay [1] (0.253 µM) it was 1.03; in assay [1] (0.8 µM), 1.02; in assay [1] (2.53 µM), 0.479; in assay [1] (8 µM), 0.385; in assay [2] (0.0005 µM), 1.05. The relative viability in assay [2] (0.001581 µM) is 0.916; in assay [2] (0.005 µM) it was 1.01; in assay [2] (0.01581 µM) it was 0.968; in assay [3] (first compound 0.08 µM) it was 0.624; in assay [3] (first compound 0.253 µM), 0.598; in assay [3] (first compound 0.8 µM) it was 0.682. In addition, the relative viability in assay [3] (first compound 2.53 µM) is 0.276; in assay [3] (first compound 8 µM), 0.157; in assay [4] (first compound 0.0005 µM), 0.3; in assay [4] (first compound 0.001581 µM) it was 0.313; in assay [4] (first compound 0.005 µM) it was 0.31; in assay [4] (first compound 0.01581 µM), 0.256.
On to HCC-44, for which the relative viability is 0.979 in assay [1] (0.08 µM); 0.976 in assay [1] (0.253 µM); 0.94 in assay [1] (0.8 µM); 0.928 in assay [1] (2.53 µM); 0.711 in assay [1] (8 µM); 0.992 in assay [2] (0.0005 µM). For the same cell line, the relative viability amounted to 0.993 in assay [2] (0.001581 µM); 0.97 in assay [2] (0.005 µM); 1 in assay [2] (0.01581 µM); 0.787 in assay [3] (first compound 0.08 µM); 1 in assay [3] (first compound 0.253 µM); 0.883 in assay [3] (first compound 0.8 µM). For the same cell line, the relative viability amounted to 0.739 in assay [3] (first compound 2.53 µM); 0.262 in assay [3] (first compound 8 µM); 0.623 in assay [4] (first compound 0.0005 µM); 0.593 in assay [4] (first compound 0.001581 µM); 0.677 in assay [4] (first compound 0.005 µM); 0.765 in assay [4] (first compound 0.01581 µM).
